Columns and labels:
[1] = blood plasma; cited from earlier work
[2] = tested on: adult human males with secondary hypogonadism; assay: One year open label extension study, long term oral trans-clomiphene 12.5 mg daily
[3] = human, in vivo, po
Experimental: A clinical study to estimate the pharmacokinetic (PK) profile of enclomiphene (trans-clomiphene) following single-dose and steady-state doses administered orally. 52 adult males between 18 and 75 years of age with total serum testosterone level<250 ng/dl or between 250 to 300 ng/dl and FSH/LH levels within the normal range, were randomly assigned to one of the following five treatment groups: (i) 12.5 mg enclomiphene/day (ii) 25 mg enclomiphene/day (iii) 50 mg enclomiphene/day (trans-clomiphene) (iv) Androgel® (1% topical testosterone applied daily) or (v) placebo. Enclomiphene citrate was provided as 12.5 mg capsules and orally administered once (12.5 mg arm) twice (25 mg arm) or four times (50 mg arm) per day for 14 consecutive days. Single-dose and steady-state PK assessments were preformed in a subset of these males following the first (Day 1) and last (Day 14) dose. […] Pre-dose plasma enclomiphene concentrations were also measured on Day 11 using a single blood sample. […] PK parameters were calculated using noncompartmental methods for subjects randomized to enclomiphene. The accumulation ratio, defined as the AUC0-24 on Day 14, divided by the AUC0-24 value on Day 1 was calculated.
The accumulation index for each enclomiphene dose group was calculated based on the arithmetic mean of the individual ratio of AUC(0-24) on Day 14 divided by AUC(0-24) on Day 1. […]

[4] = tested on: rodent, baboon, rabbit and dog models; assay: Animal safety pharmacology studies; type: in vivo
[5] = majority or all of the timepoints

OCCOc1ccc(/C(=C(/CCCl)c2ccccc2)c2ccccc2)cc1 [Ospemifene]
Half-Life [1]: 26 h

COc1ccc(-c2sc3cc(O)ccc3c2Oc2ccc(OCCN3CCCCC3)cc2)cc1 [Arzoxifene]
Half-Life [1]: 30 h

COc1ccc2c(c1)OC(C)(C)C(c1ccccc1)C2c1ccc(OCCN2CCCC2)cc1 (stereo not shown) [Ormeloxifene]
Half-Life [1]: 170 h

CC/C(=C(/c1ccc(OCCN(C)C)cc1)c1cccc(O)c1)c1ccccc1 [Droloxifene, E-1-[4′-(2-dimethylaminoethoxy)phenyl]-1-(3′-hydroxyphenyl)-2-phenyl-1-butene]
Half-Life [1]: 24 h

CC/C(=C(\c1ccccc1)c1ccc(OCCN(C)C)cc1)c1ccccc1 [Tamoxifen]
Half-Life [1]: 120 to 170 h

COc1ccc2c(c1)OC(C)(C)[C@@H](c1ccccc1)[C@@H]2c1ccc(OCCN2CCCC2)cc1 [Levormeloxifene, (−)-3R,4R-trans-7-methoxy-2,2-dimethyl-3-phenyl-4-{4-[2-(pyrrolidin-1-yl)ethoxy]phenyl} chromane]
Half-Life [1]: 24 h

CCN(CC)CCOc1ccc(C(=C(Cl)c2ccccc2)c2ccccc2)cc1 [Clomid]
Half-Life [1]: 120 to 170 h

CCN(CC)CCOc1ccc(/C(=C(\Cl)c2ccccc2)c2ccccc2)cc1 [Enclomiphene, trans-clomiphene]
other questionnaires of sexual function (DISF-SR II (M), MSDS) ([2]; 12.5 mg daily oral): no concomitantly significant changes | overall mean increases in total serum testosterone from baseline to 1 year ([2]; 12.5 mg daily oral): statistically significant | subjects who experienced serious adverse effects (SAEs) ([2]; 12.5 mg daily oral up to one year): 5% | subjects who experienced at least one adverse event considered related to the study drug ([2]; 19/101 subjects): 18.8% | subjects with mean total serum testosterone levels within the normal reference range ([2]; at 1 year, normal range 300-1040 ng/dl, 12.5 mg daily oral): 62.5% | discontinuation due to a reduction in visual acuity ([2]; during the study): No subjects were discontinued | hematology, blood chemistry, urinalysis, vital signs, physical exam, PSA values, ECG readings ([2]; during the study): no clinically relevant changes | subjects discontinued from the study due to AEs ([2]; during the study): Nine | subjects who experienced at least one adverse event ([2]; during the study): 51.5% | subjects with events considered severe ([2]; during the study): nine | libido, libido component of IIEF questionnaire ([2]; from baseline at months 4, 6 and 12): Statistically significant improvements | DHT/testosterone ratio change [2, 5]: Statistically significant increases | FSH change [2, 5]: Statistically significant increases | LH change [2, 5]: Statistically significant increases | dihydrotestosterone (DHT) change [2, 5]: Statistically significant increases | estradiol change [2, 5]: Statistically significant increases | high-density lipoprotein cholesterol (HDL-C) change from baseline [2, 5]: Statistically significant decreases | prolactin change [2, 5]: statistically significant decreases | sex hormone binding globulin (SHBG) change [2, 5]: Statistically significant increases | total cholesterol (TC) change from baseline [2, 5]: Statistically significant decreases | triglycerides change from baseline [2, 5]: Statistically significant decreases | testicular size, significance of increase ([2]; orchidometer): statistically significant increase was observed at Month 6 only | half life of enclomiphene based on the PK data obtained [3]: ~10.5 h | adverse effects in the central nervous, respiratory or cardiovascular systems [4]: no adverse effects

CC/C(=C(\c1ccc(I)cc1)c1ccc(OCCN2CCCC2)cc1)c1ccccc1 [Idoxifene]
Half-Life [1]: 3 weeks

O=C(c1ccc(OCCN2CCCCC2)cc1)c1c(-c2ccc(O)cc2)sc2cc(O)ccc12 [Raloxifene, 6-hydroxy-2(4-hydroxyphenyl)-3-[4-(2-piperdinoethoxy)benzoyl]benzo[b]thiophene]
Half-Life [1]: 27 h

Oc1ccc2c(c1)CC[C@H](c1ccccc1)[C@@H]2c1ccc(OCCN2CCCC2)cc1 [Lasofoxifene]
Half-Life [1]: 140 h
